In US10525044B2, “Treatment for chemotherapy-induced peripheral neuropathy” (priority 2013, dated 2020):
Values joined by “and” are separate entries in the source; they are usually repeats but may differ in a detail not shown here. Identical values can stand only once. “Also recorded” adds a separate entry of the source.

Legend:
[1] = system: human lung cancer cell line H460; test: LDH assay (membrane integrity) in H460 cancer cells; assay type: cell-based
Protocol: (§1) Cancer Cell Culture. The mouse liver cancer cell line BNLT3 (gift of Dr. Jack Wands, Brown University) and the human lung cancer cell line H460 (ATCC) were seeded into 96-well plates at a density of 4,000 cells/well and cultured at 37° C., 5% CO2, in DMEM (11965, Gibco) supplemented with 10% fetal bovine serum, 20 mM HEPES, 1 mM sodium pyruvate, and […] gentamycin (all reagents came from Gibco).
Cell Insults and Treatments. Determination of concentration for each anticancer drug in our experiments was based on its reported concentration in human cerebral spinal fluid (CSF) in chemotherapy, literature report of its neurotoxicity in culture, and our preliminary in vitro experimental data. […] […] PAN-811.Cl.H2O was added to cultures to final concentrations of 1.25, 2.5, 5, and 10 μM at the same time as addition of the anticancer drugs. For cancer cell lines, the cells were insulted by the second day of cell seeding with the same concentration of MTX, 5-FU, or CDDP as used in neuronal culture in the absence or presence of 10 μM PAN-811.Cl.H2O for another 3 days.
(§2) Quantitative Assays and Morphological Assessment. Cell membrane integrity and mitochondrial function of either neurons or cancer cells were measured with LDH and 3-(4,5-dimethylthiazol-2-yl)-5-(3-carboxymethoxyphenyl)-2-(4-sulfophenyl)-2H-tetrazolium [MTS] analyses, respectively. The latter has been used to quantify cell survival. For the LDH assay, a mixture of a 35 μL aliquot of culture supernatant and 17.5 μL of Mixed Substrate, Enzyme and Dye Solutions (Sigma) was incubated at room temperature (RT) for 30 minutes. For the MTS assay, 10 μL of MTS reagent (Promega) was added to a culture well containing neurons in 50 μL of medium. The preparations were incubated at 37° C. for 2 hours. The preparations for both assays were then spectrophotometrically measured at 490 nm using a 96-well plate reader (Mode 550, Bio-Rad). Neuronal cell death was morphologically determined based on the integrity of the cell soma and continuity of neuronal processes. The change in number of cancer cells was judged directly by cell density. Cells were photographed under an inverted phase contrast microscope (IX 70, Olympus) using 10× or 20× objective.
Data Analysis. Data were generated from 4-6 replicate wells, expressed as mean±standard deviation (SD), and statistically evaluated at a significance level of 1% with one factor ANOVA or Student's t-test by using software VASSARSTATS (http://vassarstats.net/) followed by the Tukey HSD test. Figure symbols are as follows: #, P<0.05, and ##, P<0.01, compared with control; *, P<0.05, and **, P<0.01, compared with the insulted group; §§, P<0.01, compared with PAN-811 treated group by Student's t-test.

[2] = system: human lung cancer cell line H460; test: Cell density of H460 cells (phase contrast); assay type: cell-based
Protocol: as §1
Cell Insults and Treatments. Determination of concentration for each anticancer drug in our experiments was based on its reported concentration in human cerebral spinal fluid (CSF) in chemotherapy, literature report of its neurotoxicity in culture, and our preliminary in vitro experimental data. At 13 d.i.v., the neuronal cell cultures were insulted with 100 μM of MTX (M9929, Sigma), 25 μM of 5-FU (F6627, Sigma), or 3.5 μM of CDDP (sc-200896, Santa Cruz) for 3 days in absence or presence of PAN 811.Cl.H2O. For ROS examination, the neurons were insulted with both 100 μM of MTX and 25 μM of 5-FU by 15 d.i.v. PAN-811.Cl.H2O was added to cultures to final concentrations of 1.25, 2.5, 5, and 10 μM at the same time as addition of the anticancer drugs. For cancer cell lines, the cells were insulted by the second day of cell seeding with the same concentration of MTX, 5-FU, or CDDP as used in neuronal culture in the absence or presence of 10 μM PAN-811.Cl.H2O for another 3 days.
as §2

rat, arterial occlusion = settings: i.c.v., 50 μg per rat at 1 h after arterial occlusion; cited from earlier work
[3] = 3.5 μM CDDP and 10 μM PAN-811, 3 days
[4] = 100 μM MTX and 10 μM PAN-811, 3 days
[5] = each agent alone, 3 days: MTX 100 μM, 5-FU 25 μM, CDDP 3.5 μM, PAN-811 10 μM

## NC(=S)N/N=C/c1ncccc1N [PAN-811, 3-aminopyridine-2-carboxaldehyde thiosemicarbazone]
[1]; [3]
  increase in LDH reading, cotreatment with CDDP: 57%
[1]; 10 μM PAN-811
  effect on MTX-, 5-FU-, or CDDP-induced membrane leakage: inhibitory effect
[1]; [4]
  reduction of LDH reading compared with MTX group, cotreatment: 70%
[1]; [5]
  increase in LDH reading in culture supernatant: 31% and 30%
[2]; [3]
  cell density, cotreatment with CDDP: greatly decreased the cell density
[2]; 25 μM 5-FU and 10 μM PAN-811, 3 days
  cell density, cotreatment with 5-FU: robustly decreased the cell density
[2]; [4]
  cell density, cotreatment with MTX: robustly decreased the cell density
[2]; [5]
  cell density: robustly decreased the cell density; also recorded: greatly decreased the cell density
rat, arterial occlusion
  reduction of infarct volume: 59%
